Where “and” joins values, the source holds several entries; their conditions need not be identical. Equal values may be shown once. Some results are limits rather than exact numbers.

What all share (assay type): cell-based, human
Series [1] deals with AAVS1. Description: 300 base insertion in fibroblasts (SfoI cut band). On the procedure: In the gel, Lane 1: 100 base ladder; Lane 2: Ultraslice and SfoI 300 base insertion dsDNA repair template (Untreated); and Lane 3: Ultraslice and SfoI 300 base insertion dsDNA repair template (NU7441 9 uM 72 h treated).
Another series has as its system AAVS1 safe-harbor locus. Description: SfoI assay (RFLP) of single-base editing in fibroblasts. Conditions: for increase in single-base editing / base change efficiency compared to untreated: application after transfection (25 μM 48 h post electroporation). On the procedure: The following general protocol was used for an Sfol assay to quantify insertion of repair template.
(§1) • 1. Fibroblasts were cultured using DMEM+10% FBS media in 37° Celsius with 5% O2 and 5% CO2 • 2. iPSC was cultured using mTeSR+Y27632 in 37° Celsius with 5% O2 and 5% CO2
(§2) • 3. After detaching cells with TrypleE and DTI, standard electroporation protocol was performed • 4. 0.8 ug˜1 ug of AAVS1 Ultraslice RNA and 600 ng of SfoI ssDNA repair template was delivered by electroporation. Ultraslice is a temperature sensitive gene-editing protein. The SfoI base change ssDNA repair template was a single stranded DNA piece with homology arms that is used as template for targeted DNA repair • 5. Fibroblasts were electroporated with 700 V, 20 ms, 1 pulse • 6. iPSCs were electroporated with 1100 V, 20 ms, 2 pulse)
• 7. Cells were detached 48 h˜72 h post electroporation and centrifuged to obtain cell pellets • 8. Perform genomic DNA extraction was performed using ZYMO Research Quick DNA Miniprep Kit (Catalog #: D3024)
• 9. AAVS1 surveyor PCR was performed using KAPA Hifi Hotstart PCR kit
• 10. 250 ng˜400 ng of AAVS1 PCR amplicon was obtained • 11. Amplicon was mixed with 2 μl of 10× Tango Buffer and 1 μl of EheI enzyme • 12. The mixture was incubated for 1 h in 37° C., followed by 20 mins at 65° C.
• 13. After diluting SfoI assay product with 40 ul of H2O, 20 ul of product was loaded to 2% Egel • 14. After running 2% Egel for 10 minutes, the gel was visualized and SfoI band intensity was quantified using Chemidoc and ImageJ software
Following treatment with resveratrol, fibroblasts was co-transfected with mRNA encoding a chromatin context-sensitive gene-editing protein targeting the AAVS1 safe-harbor locus and a single-stranded DNA repair template designed to introduce a SfoI restriction-enzyme site through a G-to-C mutation. Single-base editing efficiency was determined by restriction fragment length polymorphism (RFLP) analysis. […] In the gel, Lane 1: 100 base ladder; Lane 2: Ultraslice and SfoI base change ssDNA repair template (Resveratrol 25 μM 48 h pretreatment); Lane 3: Ultraslice and SfoI base change ssDNA repair template (Untreated); and Lane 4: Ultraslice and SfoI base change ssDNA repair template (Resveratrol 25 μM treatment 48 post electroporation).

The subject of series [2] is AAVS1. Description: 1 kb insertion in iPSCs (AAVS1 sPCR amplicon gel). Conditions: iPSC. On the procedure: as §1, §2
In this experiment, the gel image is AAVS1 sPCR amplicon and not Sfol assay product. In the gel, Lane 1: 1000 base ladder; Lane 2: Ultraslice (Clean cap) and SfoI 1 kb insertion ssDNA repair template with 90b homology arm (Reverse transcription); and Lane 3: Ultraslice (Clean cap) and SfoI 1 kb insertion ssDNA repair template with 90b homology arm (Reverse transcription)—Resveratrol 25 uM 24 h incubation.
In this experiment, the gel image is AAVS1 sPCR amplicon and not Sfol assay product. […]

The subject of the next series is fibroblasts. Description: cell cycle S/G2 population after Resveratrol treatment.
The test system of another series is iMSCs. Kind of series: electroporation of GFP repair template at AAVS1 with or without TTAGGG motif. The conditions noted are these: gene-editing at AAVS1 with GFP repair template. On the procedure: FIG. 54 is a graphical illustration of the mechanism of action that the inclusion of the TTAGGG motif has on cells during electroporation. Cells were electroporated with and without the addition of a gene editing protein, UltraSlice. All electroporation's were performed using the Invitrogen NEON.
In this example, the TTAGGG motif was incorporated onto the 5′ end of a double stranded repair template or co-electroporated as a short oligo fragment in primary fibroblasts, iMSC, or iPSC.
The sequence of the TTAGGG motif used in this example was: […] (SEQ ID NO: 15). This motif was incorporated at the 5′ and 3′ end of dsODN via PCR amplification using the primer pair A151-AAVS1, Forward primer: […] (SEQ ID NO: 86) and A151-AAVS1, Reverse primer: […] (SEQ ID NO: 87). Control primers without the motif had the following sequences: AAVS1, Forward primer: […] (SEQ ID NO: 88) and AAVS1, Reverse primer: […] (SEQ ID NO: 89). The full sequence of the repair template that human primary fibroblasts, iMSCs and iPSCs was: AAVS1-h90-pJeT-GFP-SpA-h90. This repair template included a dsODN encoding a GFP reporter and containing an SfoI restriction site targeting the AAVS1 site with 90 base pairs of homology. The A151 sequence was added to the end of a double stranded repair template using PCR amplification. Repair templates were then purified using the Qiagen QIAquick PCR Purification kit prior to electroporation. […]

Turning to `O=c1cc(N2CCOCC2)oc2c(-c3cccc4c3sc3ccccc34)cccc12` [NU7441], in the series with AAVS1 [1], the “gene-editing efficiency (gel)” value was “increased gene-editing efficiency”. The “increase in 300b insertion SfoI cut band intensity compared to untreated” value in the series on AAVS1 [1] (fibroblasts, 9 uM 72 h incubation) was 7 fold.

As for `Oc1ccc(C=Cc2cc(O)cc(O)c2)cc1` [Resveratrol], the “increase in single-base editing / base change efficiency compared to untreated” value in the series on AAVS1 safe-harbor locus is “approximately 2.3 fold”; in the series with AAVS1 safe-harbor locus (listed as resveratrol) it was greater than 2 fold. Further, the “increase in HDR / base change efficiency compared to untreated” value in the series on AAVS1 safe-harbor locus (fibroblasts, 25 μM 48 h pretreatment prior to transfection) was 2.2 fold and 2 fold. Also, the “gene-editing efficiency (gel)” value in the series on AAVS1 safe-harbor locus (pretreated fibroblasts) is “increased gene-editing efficiency”. Also, the “1 kb insertion rate” value in the series on AAVS1 [2] (25 uM for 24 h post electroporation, ssDNA repair template (Reverse transcription)) is 8.7%. Moreover, in the series with AAVS1 [2] (treatment after electroporation), the “increase of 1 kb insertion” value stood at 1.6 fold. In the series with fibroblasts (25 uM for 48 h followed by 8 h incubation in DMEM/10% FBS), the “increase in S/G2 population” value is “approximately 40%”. For the same compound, the “increase of the S and G2-phase population” value in the series with fibroblasts (treatment prior to transfection, compared to untreated cells) came out at 2.3 fold.

In the case of TTAGGGTTAGGGTTAGGGTTAGGG [A151 ODN], in the series with iMSCs, the “higher viability than when the motif was not present” value was “approximately 50%” and the “more GFP-positive cells than when the motif was not present” value is recorded as “approximately 50%”.

For the origin of these results see patent US20260108554A1, “METHODS FOR REPROGRAMMING AND GENE EDITING CELLS” (Factor Bioscience Inc., priority 2022, published 2026).
